This passage reports inhibition and Km results from paper PMC4230905, “(S)-3-hydroxyacyl-CoA dehydrogenase/enoyl-CoA hydratase (FadB’) from fatty acid degradation operon of Ralstonia eutropha H16” (AMB Express, 2014).

Data set [1] has as its target T1, FadB' ((S)-3-hydroxyacyl-CoA dehydrogenase/enoyl-CoA hydratase, H16_A0461; FadB'Re) (Cupriavidus necator, UniProt Q0KEG0).
T1 construct: N-terminal His-tag (pCOLADuet-1::3HAD), expressed in E. coli BL21; monomer (87 kDa by gel filtration); N-terminal 3HCDH and C-terminal crotonase-like domain
T1 sequence (Q0KEG0 1-807): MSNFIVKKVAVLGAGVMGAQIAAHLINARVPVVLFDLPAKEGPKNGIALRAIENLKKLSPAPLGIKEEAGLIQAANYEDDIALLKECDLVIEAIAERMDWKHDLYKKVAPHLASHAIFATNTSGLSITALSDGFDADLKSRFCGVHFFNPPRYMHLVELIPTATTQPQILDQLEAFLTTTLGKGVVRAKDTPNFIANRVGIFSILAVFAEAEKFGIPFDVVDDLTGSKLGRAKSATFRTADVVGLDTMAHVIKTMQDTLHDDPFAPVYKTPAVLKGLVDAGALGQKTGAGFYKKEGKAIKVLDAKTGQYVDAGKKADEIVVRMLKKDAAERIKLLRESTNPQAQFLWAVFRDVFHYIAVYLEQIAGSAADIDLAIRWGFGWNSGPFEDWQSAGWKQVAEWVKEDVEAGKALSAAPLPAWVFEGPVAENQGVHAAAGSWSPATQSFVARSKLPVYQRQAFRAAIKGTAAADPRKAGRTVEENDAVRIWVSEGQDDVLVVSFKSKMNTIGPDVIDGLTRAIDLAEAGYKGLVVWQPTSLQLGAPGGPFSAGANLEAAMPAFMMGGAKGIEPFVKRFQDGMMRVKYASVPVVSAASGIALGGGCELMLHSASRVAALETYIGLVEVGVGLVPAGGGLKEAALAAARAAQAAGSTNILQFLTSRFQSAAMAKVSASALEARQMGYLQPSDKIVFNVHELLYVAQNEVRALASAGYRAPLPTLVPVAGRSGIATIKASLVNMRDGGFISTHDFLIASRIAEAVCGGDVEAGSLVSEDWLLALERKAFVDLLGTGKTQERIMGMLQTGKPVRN
Kind of data set: spectrophotometric NADH oxidation at […] nm. The format is biochemical. The settings on record: read-out: % inhibition at 0.1 mM (3-hydroxyacyl-CoA dehydrogenase activity).

In data set [2] the target is T1, FadB' ((S)-3-hydroxyacyl-CoA dehydrogenase/enoyl-CoA hydratase, H16_A0461; FadB'Re). Kind of data set: coupled assay, acetoacetyl-CoA-Mg2+ complex formation at […] nm. The format is biochemical. As to conditions: read-out: % inhibition at 0.1 mM (enoyl-CoA hydratase activity).
Substrate in the data set “purified protein”: CC(=O)CC(=O)SCCNC(=O)CCNC(=O)[C@H](O)C(C)(C)COP(=O)(O)OP(=O)(O)OC[C@H]1O[C@@H](n2cnc3c(N)ncnc32)[C@H](O)[C@@H]1OP(=O)(O)O
Kind of data set: purified protein. It counts as biochemical, Cupriavidus necator. The settings on record: 3-hydroxyacyl-CoA dehydrogenase activity (reduction direction), 0.2 mM NADH, 100 mM Tris-HCl pH 7, 30 °C, no acetyl-CoA added.

`CC(C)(COP(=O)(O)OP(=O)(O)OC[C@H]1O[C@@H](n2cnc3c(N)ncnc32)[C@H](O)[C@@H]1OP(=O)(O)O)[C@@H](O)C(=O)NCCC(=O)NCCS` [CoA]: the values for the inhibition at 100 µM in data set [1] and in data set [2] were 20% and 30%, respectively.

For the molecule `CC(=O)SCCNC(=O)CCNC(=O)[C@H](O)C(C)(C)COP(=O)(O)OP(=O)(O)OC[C@H]1O[C@@H](n2cnc3c(N)ncnc32)[C@H](O)[C@@H]1OP(=O)(O)O` [acetyl-CoA], the values for the inhibition at 100 µM in data set [1] and in data set [2] were roughly 50% and 70%, respectively.

Take `CCC(=O)SCCNC(=O)CCNC(=O)[C@H](O)C(C)(C)COP(=O)(O)OP(=O)(O)OC[C@H]1O[C@@H](n2cnc3c(N)ncnc32)[C@H](O)[C@@H]1OP(=O)(O)O` [propionyl-CoA]: the inhibition at 100 µM in data set [2] is roughly 60%.

B1: FadB' ((S)-3-hydroxyacyl-CoA dehydrogenase/enoyl-CoA hydratase, H16_A0461; FadB'Re) (Cupriavidus necator H16) (protein)
chain: MSNFIVKKVAVLGAGVMGAQIAAHLINARVPVVLFDLPAKEGPKNGIALRAIENLKKLSPAPLGIKEEAGLIQAANYEDDIALLKECDLVIEAIAERMDWKHDLYKKVAPHLASHAIFATNTSGLSITALSDGFDADLKSRFCGVHFFNPPRYMHLVELIPTATTQPQILDQLEAFLTTTLGKGVVRAKDTPNFIANRVGIFSILAVFAEAEKFGIPFDVVDDLTGSKLGRAKSATFRTADVVGLDTMAHVIKTMQDTLHDDPFAPVYKTPAVLKGLVDAGALGQKTGAGFYKKEGKAIKVLDAKTGQYVDAGKKADEIVVRMLKKDAAERIKLLRESTNPQAQFLWAVFRDVFHYIAVYLEQIAGSAADIDLAIRWGFGWNSGPFEDWQSAGWKQVAEWVKEDVEAGKALSAAPLPAWVFEGPVAENQGVHAAAGSWSPATQSFVARSKLPVYQRQAFRAAIKGTAAADPRKAGRTVEENDAVRIWVSEGQDDVLVVSFKSKMNTIGPDVIDGLTRAIDLAEAGYKGLVVWQPTSLQLGAPGGPFSAGANLEAAMPAFMMGGAKGIEPFVKRFQDGMMRVKYASVPVVSAASGIALGGGCELMLHSASRVAALETYIGLVEVGVGLVPAGGGLKEAALAAARAAQAAGSTNILQFLTSRFQSAAMAKVSASALEARQMGYLQPSDKIVFNVHELLYVAQNEVRALASAGYRAPLPTLVPVAGRSGIATIKASLVNMRDGGFISTHDFLIASRIAEAVCGGDVEAGSLVSEDWLLALERKAFVDLLGTGKTQERIMGMLQTGKPVRN
notes: N-terminal His-tag (pCOLADuet-1::3HAD), expressed in E. coli BL21; monomer (87 kDa by gel filtration); N-terminal 3HCDH and C-terminal crotonase-like domain
In the case of B1, the Km in the data set “purified protein” was found to be 48 µM.

Usually inhibition stands for how much of the control response was suppressed. The Km is the substrate concentration at which the rate is half of its maximum.
